Results taken from ChEMBL document CHEMBL1201862, “PubChem BioAssay data set” (2004).
The source made the active and inactive calls.

What was measured:
Exodeoxyribonuclease V = target: T1, Exodeoxyribonuclease V (Escherichia coli (strain K12), UniProt P04993+P07648+P08394); assay: E. coli RecBCD inhibitors, dose response, counter-screen for AddAB inhibitor project, absorbance, V66 E. coli, mutant T4 phage (AID 492957); format: functional, cell-based, Escherichia coli str. K-12 substr. MG1655
T1 sequence (P04993 whole entry): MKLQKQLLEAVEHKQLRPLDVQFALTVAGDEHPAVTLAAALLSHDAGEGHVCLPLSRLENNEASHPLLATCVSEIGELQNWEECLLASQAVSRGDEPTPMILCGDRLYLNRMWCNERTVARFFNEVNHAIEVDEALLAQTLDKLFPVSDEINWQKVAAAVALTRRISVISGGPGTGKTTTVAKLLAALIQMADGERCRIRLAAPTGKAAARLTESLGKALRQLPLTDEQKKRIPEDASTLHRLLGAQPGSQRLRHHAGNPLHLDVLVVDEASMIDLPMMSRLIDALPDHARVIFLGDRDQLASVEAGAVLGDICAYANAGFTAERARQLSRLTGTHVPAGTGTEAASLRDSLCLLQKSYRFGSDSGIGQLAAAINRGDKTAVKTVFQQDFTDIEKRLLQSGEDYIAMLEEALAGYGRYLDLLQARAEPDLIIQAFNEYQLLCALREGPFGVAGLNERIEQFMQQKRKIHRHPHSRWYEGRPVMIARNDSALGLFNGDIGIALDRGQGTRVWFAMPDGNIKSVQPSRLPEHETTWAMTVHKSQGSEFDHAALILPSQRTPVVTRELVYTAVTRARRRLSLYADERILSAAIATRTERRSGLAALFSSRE
T1 sequence (P07648 whole entry): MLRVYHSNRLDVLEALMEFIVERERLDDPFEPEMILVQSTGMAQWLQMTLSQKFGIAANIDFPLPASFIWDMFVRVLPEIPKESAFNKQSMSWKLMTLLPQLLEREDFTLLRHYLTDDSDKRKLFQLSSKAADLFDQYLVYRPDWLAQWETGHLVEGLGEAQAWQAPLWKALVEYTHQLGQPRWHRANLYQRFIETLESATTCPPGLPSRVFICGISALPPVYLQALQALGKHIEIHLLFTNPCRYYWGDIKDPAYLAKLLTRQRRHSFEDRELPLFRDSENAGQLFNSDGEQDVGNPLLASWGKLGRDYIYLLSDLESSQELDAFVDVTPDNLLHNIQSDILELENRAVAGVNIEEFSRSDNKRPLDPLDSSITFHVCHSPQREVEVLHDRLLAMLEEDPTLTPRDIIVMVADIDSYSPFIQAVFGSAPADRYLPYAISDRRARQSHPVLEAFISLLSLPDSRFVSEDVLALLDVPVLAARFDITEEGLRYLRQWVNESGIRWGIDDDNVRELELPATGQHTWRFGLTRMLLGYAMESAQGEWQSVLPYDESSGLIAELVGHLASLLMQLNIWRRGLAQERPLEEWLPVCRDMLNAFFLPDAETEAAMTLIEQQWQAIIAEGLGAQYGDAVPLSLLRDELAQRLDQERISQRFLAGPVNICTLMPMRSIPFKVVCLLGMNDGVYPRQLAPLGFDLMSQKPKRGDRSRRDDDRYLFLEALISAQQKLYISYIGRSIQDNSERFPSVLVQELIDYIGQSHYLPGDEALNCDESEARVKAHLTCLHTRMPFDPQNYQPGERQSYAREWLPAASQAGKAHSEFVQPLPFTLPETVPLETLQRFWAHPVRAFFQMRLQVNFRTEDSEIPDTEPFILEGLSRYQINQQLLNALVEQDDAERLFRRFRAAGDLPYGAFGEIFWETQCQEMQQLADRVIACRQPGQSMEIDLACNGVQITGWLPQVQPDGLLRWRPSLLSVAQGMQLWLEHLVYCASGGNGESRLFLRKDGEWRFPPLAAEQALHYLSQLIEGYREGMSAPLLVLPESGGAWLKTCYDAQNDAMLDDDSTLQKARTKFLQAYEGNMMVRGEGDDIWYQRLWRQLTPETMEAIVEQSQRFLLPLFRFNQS
T1 sequence (P08394 whole entry): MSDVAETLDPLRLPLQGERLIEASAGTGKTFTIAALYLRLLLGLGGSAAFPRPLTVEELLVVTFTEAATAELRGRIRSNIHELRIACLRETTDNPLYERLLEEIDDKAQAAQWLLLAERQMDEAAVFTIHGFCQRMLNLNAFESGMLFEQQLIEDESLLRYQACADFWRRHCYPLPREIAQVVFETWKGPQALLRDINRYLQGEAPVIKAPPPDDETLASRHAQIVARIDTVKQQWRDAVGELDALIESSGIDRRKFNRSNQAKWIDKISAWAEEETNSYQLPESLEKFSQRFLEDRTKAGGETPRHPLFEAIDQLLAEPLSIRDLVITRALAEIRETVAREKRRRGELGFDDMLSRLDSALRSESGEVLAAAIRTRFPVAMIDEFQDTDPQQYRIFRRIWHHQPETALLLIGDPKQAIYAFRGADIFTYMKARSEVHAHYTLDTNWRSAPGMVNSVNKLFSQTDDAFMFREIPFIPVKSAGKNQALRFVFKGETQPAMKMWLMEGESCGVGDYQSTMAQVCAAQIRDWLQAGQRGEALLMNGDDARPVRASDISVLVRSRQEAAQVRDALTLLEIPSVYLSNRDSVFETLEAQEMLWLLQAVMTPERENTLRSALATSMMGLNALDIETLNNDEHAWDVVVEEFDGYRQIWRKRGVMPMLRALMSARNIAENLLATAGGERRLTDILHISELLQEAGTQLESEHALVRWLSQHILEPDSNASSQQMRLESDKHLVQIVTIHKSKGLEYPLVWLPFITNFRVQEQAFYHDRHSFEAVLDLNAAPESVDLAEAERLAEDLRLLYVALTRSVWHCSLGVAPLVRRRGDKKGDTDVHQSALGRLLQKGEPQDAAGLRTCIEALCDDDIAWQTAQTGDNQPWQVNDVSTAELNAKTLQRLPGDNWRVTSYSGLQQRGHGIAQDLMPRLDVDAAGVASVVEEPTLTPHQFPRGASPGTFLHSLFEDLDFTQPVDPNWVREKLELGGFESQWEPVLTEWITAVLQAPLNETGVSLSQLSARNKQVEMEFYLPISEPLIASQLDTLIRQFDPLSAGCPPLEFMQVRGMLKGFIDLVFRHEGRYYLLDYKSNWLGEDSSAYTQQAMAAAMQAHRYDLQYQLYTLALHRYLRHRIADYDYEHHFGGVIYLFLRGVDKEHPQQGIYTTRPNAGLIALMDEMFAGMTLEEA

cells = format: functional, cell-based
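Wherever EC50 is given: proteasome chymotrypsin-like activity measured in U2OS cells; potency is for inhibition of proteasome activity.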

SMILES	IC50 (Exodeoxyribonuclease V)	EC50 (cells)
CCCC(=O)NC(c1ccc(Cl)cc1)c1ccc2cccnc2c1O (centres undefined)	> 119 µM (inactive)	> 350 µM (not active)
CCC(=O)NC(c1ccc(C)cc1)c1ccc2cccnc2c1O (centres undefined)	> 119 µM (inactive)	> 350 µM (not active)
